Non-standard residues stand in square brackets, D forms with d. Residues, ends and D or L forms follow the SMILES beside them. *: point of attachment. Asp(3,3-(CH2)4) = N[C@H](C(=O)O)C1(C(=O)O)CCCC1; Dibenzylacetyl = O=C(C(Cc1ccccc1)Cc1ccccc1)*; Leu(γ-Me)ol = CC(C)(C)C[C@@H](CO)N*; Hydrocinnamoyl = O=C(CCc1ccccc1)*; tBuAla = CC(C)(C)C[C@H](N)C(=O)O; Butanoyl(2-Et) = CCC(CC)C(=O)*; Chg = N[C@H](C(=O)O)C1CCCCC1; Tle = CC(C)(C)[C@H](N)C(=O)O; NMeV = CN[C@H](C(=O)O)C(C)C; Leu(ol) = CC(C)C[C@H](N)CO; Pyrrolidide = C1CCN(*)C1; Abu = CC[C@H](N)C(=O)O
Experiments:
[1] = target: Ribonucleotide reductase large subunit (Herpes simplex virus 1); experiment: In vitro inhibitory activity against HSV ribonucleotide reductase
[2] = target: Ribonucleotide reductase large subunit (Herpes simplex virus 1); experiment: Inhibitory activity against HSV-1 in baby hamster kidney cell
[3] = target: Ribonucleotide reductase large subunit (Herpes simplex virus 2); experiment: Inhibitory activity against HSV-2 in baby hamster kidney cell

SMILES	IC50 [1]	EC50 [2]	EC50 [3]
CC(C)C[C@H](NC(=O)[C@H](CC(=O)O)NC(=O)[C@H](CC(N)=O)NC(=O)[C@@H](NC(=O)[C@@H](NC(=O)[C@@H](C)Cc1ccccc1)C(C)C)C(C)C)C(=O)O	11 µM	–	–
CCC(CC)C(=O)N[C@H](C(=O)N[C@@H](CC(=O)N1CCCC1)C(=O)N[C@H](C(=O)N[C@@H](CC(C)C)C(=O)O)C1(C(=O)O)CC=CC1)C(C)(C)C	0.0064 µM	–	–
CC(C)C[C@H](NC(=O)[C@H](CC(=O)O)NC(=O)[C@H](CC(N)=O)NC(=O)[C@@H](NC(=O)[C@@H](NC(=O)[C@H](C)Cc1ccccc1)C(C)C)C(C)C)C(=O)O	0.86 µM	–	–
CC(C)C[C@H](NC(=O)[C@H](CC(=O)O)NC(=O)[C@H](CC(N)=O)NC(=O)[C@@H](NC(=O)[C@@H](NC(=O)C(Cc1ccccc1)Cc1ccccc1)C(C)C)C(C)C)C(=O)O	0.18 µM	–	–
CC(C)C[C@H](NC(=O)[C@H](CC(=O)O)NC(=O)[C@H](CC(N)=O)NC(=O)[C@@H](NC(=O)[C@@H](NC(=O)CCc1ccccc1)C(C)C)C(C)C)C(=O)O	4 µM	–	–
CC(C)C[C@H](NC(=O)[C@H](CC(=O)O)NC(=O)[C@H](CC(N)=O)NC(=O)[C@@H](NC(=O)[C@H](C(C)C)N(C)C(=O)C(Cc1ccccc1)Cc1ccccc1)C(C)C)C(=O)O	0.022 µM	–	–
CC(=O)N[C@H](C(=O)N[C@H](C(=O)N[C@@H](CC(=O)N1CCCC1)C(=O)N[C@@H](CC(=O)O)C(=O)N[C@@H](CC(C)C)C(=O)O)C(C)C)C(C)C (Ac-VVD(Pyrrolidide)DL-OH)	0.88 µM	–	–
CC(C)C[C@H](NC(=O)[C@H](CC(=O)O)NC(=O)[C@H](CC(=O)N1CCCC1)NC(=O)[C@@H](NC(=O)[C@@H](NC(=O)C(Cc1ccccc1)Cc1ccccc1)C(C)C)C(C)C)C(=O)O (Dibenzylacetyl-VVD(Pyrrolidide)DL-OH)	0.0007 µM	–	–
CC(C)[C@H](NC(=O)C(Cc1ccccc1)Cc1ccccc1)C(=O)N[C@H](C(=O)N[C@@H](CC(=O)N1CCCC1)C(=O)N[C@H](C(=O)N[C@H](CO)CC(C)(C)C)C1(C(=O)O)CCCC1)C(C)(C)C (Dibenzylacetyl-V[Tle]D(Pyrrolidide)[Asp(3,3-(CH2)4)]-{Leu(γ-Me)ol})	–	12 µM	14 µM
CC(C)[C@H](NC(=O)[C@H](C(C)C)N(C)C(=O)C(Cc1ccccc1)Cc1ccccc1)C(=O)N[C@@H](CC(=O)N1CCCC1)C(=O)N[C@H](C(=O)N[C@H](CO)CC(C)(C)C)C1(C(=O)O)CCCC1 (Dibenzylacetyl-[NMeV]VD(Pyrrolidide)[Asp(3,3-(CH2)4)]-{Leu(γ-Me)ol})	–	7 µM	6.5 µM
CC(C)[C@@H](C(=O)N[C@H](C(=O)N[C@@H](CC(=O)N1CCCC1)C(=O)N[C@@H](CC(=O)O)C(=O)N[C@H](CO)CC(C)(C)C)C(C)(C)C)N(C)C(=O)C(Cc1ccccc1)Cc1ccccc1 (Dibenzylacetyl-[NMeV][Tle]D(Pyrrolidide)D-{Leu(γ-Me)ol})	–	30 µM	39 µM
CC(C)[C@@H](C(=O)N[C@H](C(=O)N[C@@H](CC(=O)N1CCCC1)C(=O)N[C@H](C(=O)N[C@H](CO)CC(C)(C)C)C1(C(=O)O)CCCC1)C(C)(C)C)N(C)C(=O)C(Cc1ccccc1)Cc1ccccc1 (Dibenzylacetyl-[NMeV][Tle]D(Pyrrolidide)[Asp(3,3-(CH2)4)]-{Leu(γ-Me)ol})	–	3.1 µM	4.2 µM
CC(C)C[C@@H](CO)NC(=O)[C@@H](NC(=O)[C@H](CC(=O)N1CCCC1)NC(=O)[C@@H](NC(=O)[C@H](C(C)C)N(C)C(=O)C(Cc1ccccc1)Cc1ccccc1)C(C)(C)C)C1(C(=O)O)CCCC1 (Dibenzylacetyl-[NMeV][Tle]D(Pyrrolidide)[Asp(3,3-(CH2)4)][Leu(ol)])	–	7.3 µM	7.3 µM
CC(C)[C@@H](C(=O)N[C@H](C(=O)N[C@@H](CC(=O)N1CCCC1)C(=O)N[C@H](C(=O)N[C@@H](CC(C)(C)C)C(=O)O)C1(C(=O)O)CCCC1)C(C)(C)C)N(C)C(=O)C(Cc1ccccc1)Cc1ccccc1 (Dibenzylacetyl-[NMeV][Tle]D(Pyrrolidide)[Asp(3,3-(CH2)4)][tBuAla]-OH)	–	35 µM	30 µM
CC(C)[C@@H](C(=O)N[C@H](C(=O)N[C@@H](CC(N)=O)C(=O)N[C@H](C(=O)N[C@H](CO)CC(C)(C)C)C1(C(=O)O)CCCC1)C(C)(C)C)N(C)C(=O)C(Cc1ccccc1)Cc1ccccc1 (Dibenzylacetyl-[NMeV][Tle]N[Asp(3,3-(CH2)4)]-{Leu(γ-Me)ol})	–	150 µM	150 µM
CC(C)C[C@H](NC(=O)[C@H](CC(=O)O)NC(=O)[C@H](CC(=O)N1CCCC1)NC(=O)[C@@H](NC(=O)[C@H](C)NC(=O)CCc1ccccc1)C(C)C)C(=O)O (Hydrocinnamoyl-AVD(Pyrrolidide)DL-OH)	8.8 µM	–	–
CC(C)C[C@H](NC(=O)[C@H](CC(=O)O)NC(=O)[C@H](CC(=O)N1CCCC1)NC(=O)[C@@H](NC(=O)CNC(=O)CCc1ccccc1)C(C)C)C(=O)O (Hydrocinnamoyl-GVD(Pyrrolidide)DL-OH)	115 µM	–	–
CC[C@H](C)[C@H](NC(=O)CCc1ccccc1)C(=O)N[C@H](C(=O)N[C@@H](CC(=O)N1CCCC1)C(=O)N[C@@H](CC(=O)O)C(=O)N[C@@H](CC(C)C)C(=O)O)C(C)C (Hydrocinnamoyl-IVD(Pyrrolidide)DL-OH)	0.061 µM	–	–
CC(C)[C@H](NC(=O)CCc1ccccc1)C(=O)N[C@H](C(=O)N[C@@H](CC(=O)N1CCCC1)C(=O)N[C@@H](CC(=O)O)C(=O)N[C@H](CO)CC(C)(C)C)C(C)C (Hydrocinnamoyl-VVD(Pyrrolidide)D-{Leu(γ-Me)ol})	0.034 µM	–	–
CC(C)C[C@H](NC(=O)[C@H](CC(=O)O)NC(=O)[C@H](CC(=O)N1CCCC1)NC(=O)[C@@H](NC(=O)[C@@H](NC(=O)CCc1ccccc1)C(C)C)C(C)C)C(=O)O (Hydrocinnamoyl-VVD(Pyrrolidide)DL-OH)	0.024 µM	–	–
CC(C)[C@H](NC(=O)CCc1ccccc1)C(=O)N[C@H](C(=O)N[C@@H](CC(=O)N1CCCC1)C(=O)N[C@@H](CC(=O)O)C(=O)N[C@@H](CC(C)(C)C)C(=O)O)C(C)C (Hydrocinnamoyl-VVD(Pyrrolidide)D[tBuAla]-OH)	0.005 µM	–	–
CC(C)C[C@H](NC(=O)[C@@H](NC(=O)[C@H](CC(=O)N1CCCC1)NC(=O)[C@@H](NC(=O)[C@@H](NC(=O)CCc1ccccc1)C(C)C)C(C)C)C1(C(=O)O)CCCC1)C(=O)O (Hydrocinnamoyl-VVD(Pyrrolidide)[Asp(3,3-(CH2)4)]L-OH)	0.001 µM	–	–
CC(C)C[C@H](NC(=O)[C@H](CC(=O)O)NC(=O)[C@H](CC(=O)N1CCCC1)NC(=O)[C@@H](NC(=O)[C@@H](NC(=O)CCc1ccccc1)C(C)C)C(C)(C)C)C(=O)O (Hydrocinnamoyl-V[Tle]D(Pyrrolidide)DL-OH)	0.004 µM	–	–
CC[C@H](NC(=O)CCc1ccccc1)C(=O)N[C@H](C(=O)N[C@@H](CC(=O)N1CCCC1)C(=O)N[C@@H](CC(=O)O)C(=O)N[C@@H](CC(C)C)C(=O)O)C(C)C (Hydrocinnamoyl-[Abu]VD(Pyrrolidide)DL-OH)	0.34 µM	–	–
CC(C)C[C@H](NC(=O)[C@H](CC(=O)O)NC(=O)[C@H](CC(=O)N1CCCC1)NC(=O)[C@@H](NC(=O)[C@@H](NC(=O)CCc1ccccc1)C1CCCCC1)C(C)C)C(=O)O (Hydrocinnamoyl-[Chg]VD(Pyrrolidide)DL-OH)	0.022 µM	–	–
CC(C)C[C@H](NC(=O)[C@H](CC(=O)O)NC(=O)[C@H](CC(=O)N1CCCC1)NC(=O)[C@@H](NC(=O)[C@H](C(C)C)N(C)C(=O)CCc1ccccc1)C(C)C)C(=O)O (Hydrocinnamoyl-[NMeV]VD(Pyrrolidide)DL-OH)	0.0075 µM	–	–
CC(C)[C@@H](C(=O)N[C@H](C(=O)N[C@@H](CC(=O)N1CCCC1)C(=O)N[C@H](C(=O)N[C@H](CO)CC(C)(C)C)C1(C(=O)O)CCCC1)C(C)(C)C)N(C)C(=O)CCc1ccccc1 (Hydrocinnamoyl-[NMeV][Tle]D(Pyrrolidide)[Asp(3,3-(CH2)4)]-{Leu(γ-Me)ol})	–	52 µM	35 µM
CC(C)C[C@H](NC(=O)[C@H](CC(=O)O)NC(=O)[C@H](CC(=O)N1CCCC1)NC(=O)[C@@H](NC(=O)[C@@H](NC(=O)CCc1ccccc1)C(C)(C)C)C(C)C)C(=O)O (Hydrocinnamoyl-[Tle]VD(Pyrrolidide)DL-OH)	0.036 µM	–	–
CCC(CC)C(=O)N[C@H](C(=O)N[C@@H](CC(=O)N1CCCC1)C(=O)N[C@@H](CC(=O)O)C(=O)N[C@@H](CC(C)C)C(=O)O)C(C)C ({Butanoyl(2-Et)}-VD(Pyrrolidide)DL-OH)	0.86 µM	–	–

— ChEMBL document CHEMBL1128692, “Peptidomimetic inhibitors of herpes simplex virus ribonucleotide reductase: a new class of antiviral agents” (J Med Chem, 1995)
